Laboratory results: patent US12649718B2, “Synthesis of n,n-dimethyltryptamine-type compounds, methods, and uses preliminary class 548” (CYBIN UK LTD, priority 2019, dated 2026)

Columns and labels:
[1] = test system: individuals who have ingested 5-MeO-DMT; details: cited from earlier work
[2] = cited from earlier work
[3] = Solubility in water (vessel cleaning note); format: physicochemical; details: Stage 3 vessel cleaning information
[4] = hashed area of FIG. 2; cited from earlier work
[5] = test system: humans; details: 0.05 mg/kg to 0.4 mg/kg; bolus injections or prolonged infusions; only mild to moderate adverse effects; cited from earlier work
[6] = self-report, uncontrolled setting, Davis et al. 2018

COc1ccc2[nH]cc(CCN(C)C)c2c1 [Mixture 5-MeO-DMT, 5-methoxy-N, N-dimethyltryptamine]
Individuals with alcoholism or hazardous drinking reporting improvements ([1]; n=75 out of 113): 66% | Participants indicating symptoms improved: anxiety [1, 6]: 69% | Participants indicating symptoms improved: depression [1, 6]: 77% | Participants indicating symptoms improved: post-traumatic stress disorder [1, 6]: 79% | Half-life ([2]; rapidly metabolized, H-W. Shen et al. 2010): 12 to 19 min | Oral bioavailability ([2]; without coadministration alongside a monoamine oxidase inhibitor): not orally bioavailable

CN(C)CCc1c[nH]c2ccccc12.O=C(O)/C=C/C(=O)O [API, N,N-DMT fumarate]
Solubility in water [3]: API highly soluble

CN(C)CCc1c[nH]c2ccccc12 [DMT, N, N-dimethyltryptamine]
Effect site concentrations experienced as full dissociation from the external world [4]: > 60 ng/mL | Tolerability [5]: well-tolerated
